Our source for the IC50 values is US7868030B2, “FBPase inhibitors for diabetes” (Hoffmann-La Roche Inc., priority 2006, dated 2011).

What is called pIC50 is the negative decadic logarithm of the IC50, by convention in mol/L.

The target in the test is T1, human liver FBPase (Homo sapiens, UniProt P09467).
T1 construct: made in house; host or cells: E. coli
T1 sequence (P09467 2-338 limits assumed): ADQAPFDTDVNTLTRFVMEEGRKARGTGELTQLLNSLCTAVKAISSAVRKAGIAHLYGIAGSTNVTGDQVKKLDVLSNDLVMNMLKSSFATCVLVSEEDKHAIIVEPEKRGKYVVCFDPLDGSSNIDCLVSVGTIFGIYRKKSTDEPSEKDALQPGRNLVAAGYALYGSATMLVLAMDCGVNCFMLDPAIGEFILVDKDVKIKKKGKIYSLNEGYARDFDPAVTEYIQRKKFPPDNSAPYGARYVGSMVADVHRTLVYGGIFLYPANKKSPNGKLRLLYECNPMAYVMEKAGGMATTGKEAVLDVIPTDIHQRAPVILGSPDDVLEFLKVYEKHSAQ
The test can be described thus: FBPase assay (inorganic phosphate release, malachite green). The format is biochemical. The following applies: recombinant human liver FBPase, 50 μM fructose-1,6-bisphosphate, read-out at 620 nm. The method, then:
The following tests were carried out for evaluating the inhibitory activity of the compounds of the present invention against human liver FBPase (Swissprot Data base reference PO9467, entry F16P_HUMAN).
Enzyme preparation: Human liver FBPase cDNA (NM_000507) was purchased from Origene Technologies, Inc, subcloned in a vector for expression in E. Coli., and sequenced. Recombinant human liver FBPase (hlFBPase) was purified according to the following protocol that uses heat denaturation similarly to that described by El-Maghrabi et. al. [El-Maghrabi, M. R. et al. “Isolation of a human liver fructose-1,6-bisphosphatase cDNA and expression of the protein in Escherichia coli.” J Biol Chem 268:9466-9472, 1993.]. […] Purity of the enzyme preparation was >90% as assessed by Mass spectrometry.
In vitro activity: Recombinant human liver FBPase (hlFBPase) activity was assayed through measuring the inorganic phosphate release that results from the hydrolysis of Fructose-1,6-bisphosphate by the enzyme. […] Anal. Biochem., 171:266-270, 1988], inorganic phosphate can be readily quantified by spectrophotometry at 620 nm after complexation with ammonium molybdate/malachite green reagent. […] Under these conditions, the assay was linear with time and able to detect FBPase inhibition after spectrophotometric read-out at 620 nm.

pIC50: −log10 of the molar value.

With `Cc1cccc(S(=O)(=O)NC(=O)Nc2ncc(Br)s2)c1` [Example 5, N-[(5-Bromo-1,3-thiazol-2-yl)carbamoyl]-3-methylbenzenesulfonamide], the pIC50 is 6.60.
As to `COc1ccc(-c2sc(S(=O)(=O)NC(=O)Nc3ncc(Br)s3)cc2C)cc1` [Example 52, N-[(5-Bromo-1,3-thiazol-2-yl)carbamoyl]-5-(4-methoxyphenyl)-4-methyl-thiophene-2-sulfonamide], the pIC50 is 7.19.
